US10844051B2, “Substituted oxazoles for the treatment of cancer” (THE ROYAL INSTITUTION FOR THE ADCANCEMENT OF …, priority 2015, dated 2020)

Tested on: hSTING and/or mSTING
Test: hSTING- or mSTING-dependent ISRE-luc reporter assay in 293T cells
Format: cell-based
Settings: 24 hours
Description: ISRE-luc (reporter), pRL-TK (internal control) and hSTING- or mSTING-expressing plasmids were transiently transfected into 293T cells. Cells were exposed to DMSO vehicle control or compounds for 24 hours. Experiments were done in triplicate.

Compound	activation of hSTING and/or mSTING in ISRE-luc reporter assay	also measured
Oc1ccccc1N1CCN(Cc2nc(-c3cccc(F)c3)c(-c3cccc(F)c3)[nH]2)CC1 [Compound 1183]	–	activation of hSTING and/or mSTING in ISRE-luc reporter assay (20 μM): activate hSTING and/or mSTING
Brc1ccc(N2CCN(Cc3nc(-c4ccccc4)c(-c4ccccc4)o3)CC2)cc1 [Compound 1097]	activate hSTING and/or mSTING	–
Cn1cc(CNCc2nc(-c3cccc(F)c3)c(-c3cccc(F)c3)[nH]2)c2ccccc21 [Compound 1096]	activate hSTING and/or mSTING	–
Fc1cccc(CN2CCN(Cc3nc(-c4ccccc4)c(-c4ccccc4)o3)CC2)c1 [Compound 1286]	activate hSTING and/or mSTING	–
c1ccc(-c2nc(CNCCc3c[nH]c4ccccc34)[nH]c2-c2ccccc2)cc1 [Compound 1369]	activate hSTING and/or mSTING	–
Oc1ccccc1N1CCN(Cc2nc(-c3ccccc3)c(-c3ccccc3)o2)CC1 [Compound 1184]	–	activation of hSTING and/or mSTING in ISRE-luc reporter assay (20 μM): activate hSTING and/or mSTING
N#Cc1ccc(N2CCN(Cc3nc(-c4ccccc4)c(-c4ccccc4)[nH]3)CC2)cc1 [Compound 1120]	activate hSTING and/or mSTING	–
c1ccc(-c2nc(CN3CCN(c4ccccn4)CC3)oc2-c2ccccc2)cc1 [Compound 1227]	–	activation of hSTING and/or mSTING in ISRE-luc reporter assay (20 μM): activate hSTING and/or mSTING
c1ccc(-c2nc(CN3CCN(c4ccccc4)CC3)[nH]c2-c2ccccc2)cc1 [Compound 1099]	activate hSTING and/or mSTING	–
Oc1ccc(N2CCN(Cc3nc(-c4cccc(F)c4)c(-c4cccc(F)c4)[nH]3)CC2)cc1 [Compound 1139]	activate hSTING and/or mSTING	–
O=C(c1ccco1)N1CCN(Cc2nc(-c3ccccc3)c(-c3ccccc3)[nH]2)CC1 [Compound 1125]	activate hSTING and/or mSTING	–
FC(F)(F)c1cccc(CCc2nc(-c3ccccc3)c(-c3ccccc3)o2)c1 [Compound 1011]	–	activation of hSTING and/or mSTING in ISRE-luc reporter assay (10 μM): activate hSTING and/or mSting
Fc1cccc(-c2nc(/C=C/c3ccsc3)[nH]c2-c2cccc(F)c2)c1 [Compound 1037]	–	activation of hSTING and/or mSTING in ISRE-luc reporter assay (10 μM): activate hSTING and/or mSting
COc1ccc2[nH]cc(CCNCc3nc(-c4cccc(F)c4)c(-c4cccc(F)c4)[nH]3)c2c1 [Compound 1041]	activate hSTING and/or mSTING	–
OC1(c2cccc(C(F)(F)F)c2)CCN(Cc2nc(-c3ccccc3)c(-c3ccccc3)o2)CC1 [Compound 1127]	activate hSTING and/or mSTING	–
N#Cc1ccc(N2CCN(Cc3nc(-c4cccc(F)c4)c(-c4cccc(F)c4)[nH]3)CC2)cc1 [Compound 1104]	activate hSTING and/or mSTING	–
O=[N+]([O-])c1ccccc1S(=O)(=O)N(CCc1c[nH]c2ccccc12)Cc1nc(-c2ccccc2)c(-c2ccccc2)[nH]1 [Compound 1373]	activate hSTING and/or mSTING	–
O=C(c1cccc(F)c1)N1CCN(Cc2nc(-c3cccc(F)c3)c(-c3cccc(F)c3)[nH]2)CC1 [Compound 1177]	–	activation of hSTING and/or mSTING in ISRE-luc reporter assay (10 μM): activate hSTING and/or mSTING
COc1cccc(N2CCN(Cc3nc(-c4cccc(F)c4)c(-c4cccc(F)c4)[nH]3)CC2)c1 [Compound 1141]	activate hSTING and/or mSTING	–
N#Cc1ccccc1CN1CCN(Cc2nc(-c3ccccc3)c(-c3ccccc3)o2)CC1 [Compound 1364]	activate hSTING and/or mSTING	–
N#Cc1cccc(CN2CCN(Cc3nc(-c4ccccc4)c(-c4ccccc4)o3)CC2)c1 [Compound 1360]	activate hSTING and/or mSTING	–
O=C(c1ccccc1F)N1CCN(Cc2nc(-c3cccc(F)c3)c(-c3cccc(F)c3)[nH]2)CC1 [Compound 1178]	–	activation of hSTING and/or mSTING in ISRE-luc reporter assay (10 μM): activate hSTING and/or mSTING
O=C(c1ccccc1)N1CCN(Cc2nc(-c3ccccc3)c(-c3ccccc3)[nH]2)CC1 [Compound 1122]	activate hSTING and/or mSTING	–
Fc1ccc(CN2CCN(Cc3nc(-c4ccccc4)c(-c4ccccc4)o3)CC2)cc1 [Compound 1288]	activate hSTING and/or mSTING	–
O=C(c1ccccc1)N1CCN(Cc2nc(-c3cccc(F)c3)c(-c3cccc(F)c3)[nH]2)CC1 [Compound 1121]	activate hSTING and/or mSTING	–
OC1(c2cccc(C(F)(F)F)c2)CCN(Cc2nc(-c3ccccc3)c(-c3ccccc3)[nH]2)CC1 [Compound 1129]	activate hSTING and/or mSTING	–
COc1cccc(CN2CCN(Cc3nc(-c4ccccc4)c(-c4ccccc4)o3)CC2)c1 [Compound 1289]	activate hSTING and/or mSTING	–
O=C(c1ccco1)N1CCN(Cc2nc(-c3ccccc3)c(-c3ccccc3)o2)CC1 [Compound 1126]	activate hSTING and/or mSTING	–

Compound	activation of hSTING and/or mSTING in ISRE-luc reporter assay	also measured
COc1cccc(N2CCN(Cc3nc(-c4ccccc4)c(-c4ccccc4)[nH]3)CC2)c1 [Compound 1143]	activate hSTING and/or mSTING	–
Fc1cccc(-c2nc(CNCc3ccc4[nH]ccc4c3)[nH]c2-c2cccc(F)c2)c1 [Compound 1042]	activate hSTING and/or mSTING	–
Fc1cccc(-c2nc(CN3CCC(c4cccc(C(F)(F)F)c4)CC3)[nH]c2-c2cccc(F)c2)c1 [Compound 1173]	–	activation of hSTING and/or mSTING in ISRE-luc reporter assay (10 μM): activate hSTING and/or mSTING
COc1cccc(N2CCN(Cc3nc(-c4ccccc4)c(-c4ccccc4)o3)CC2)c1 [Compound 1142]	activate hSTING and/or mSTING	–
COc1cccc(-c2nc(CCc3cc(C(F)(F)F)cc(C(F)(F)F)c3)oc2-c2cccc(OC)c2)c1 [Compound 1033]	–	activation of hSTING and/or mSTING in ISRE-luc reporter assay (10 μM): activate hSTING and/or mSting
Fc1cccc(-c2nc(CN3CCN(Cc4ccccc4)CC3)[nH]c2-c2cccc(F)c2)c1 [Compound 1175]	–	activation of hSTING and/or mSTING in ISRE-luc reporter assay (10 μM): activate hSTING and/or mSTING
c1ccc(-c2nc(CN3CCC(c4c[nH]c5ccccc45)CC3)oc2-c2ccccc2)cc1 [Compound 1124]	activate hSTING and/or mSTING	–
COc1ccc(CN2CCN(Cc3nc(-c4ccccc4)c(-c4ccccc4)o3)CC2)cc1 [Compound 1287]	activate hSTING and/or mSTING	–
COc1ccc2[nH]cc(CCN(Cc3nc(-c4cccc(F)c4)c(-c4cccc(F)c4)[nH]3)S(=O)(=O)c3ccccc3[N+](=O)[O-])c2c1 [Compound 1039]	activate hSTING and/or mSTING	–
N#Cc1ccc(CN2CCN(Cc3nc(-c4ccccc4)c(-c4ccccc4)o3)CC2)cc1 [Compound 1361]	activate hSTING and/or mSTING	–
Clc1ccc(N2CCN(Cc3nc(-c4ccccc4)c(-c4ccccc4)[nH]3)CC2)cc1Cl [Compound 1098]	activate hSTING and/or mSTING	–
O=[N+]([O-])c1ccccc1S(=O)(=O)N(Cc1ccc2[nH]ccc2c1)Cc1nc(-c2cccc(F)c2)c(-c2cccc(F)c2)[nH]1 [Compound 1040]	activate hSTING and/or mSTING	–
Fc1cccc(-c2nc(/C=C/c3ccoc3)oc2-c2cccc(F)c2)c1 [Compound 1035]	–	activation of hSTING and/or mSTING in ISRE-luc reporter assay (10 μM): activate hSTING and/or mSting
c1ccc(-c2nc(CN3CCN(Cc4ccccn4)CC3)oc2-c2ccccc2)cc1 [Compound 1285]	activate hSTING and/or mSTING	–
Fc1cccc(-c2nc(/C=C/c3cc(C(F)(F)F)cc(C(F)(F)F)c3)oc2-c2cccc(F)c2)c1 [Compound 1012]	–	activation of hSTING and/or mSTING in ISRE-luc reporter assay (10 μM): activate hSTING and/or mSting
O=C(c1ccccc1)N1CCN(Cc2nc(-c3ccccc3)c(-c3ccccc3)o2)CC1 [Compound 1123]	activate hSTING and/or mSTING	–
Oc1cccc(N2CCN(Cc3nc(-c4cccc(F)c4)c(-c4cccc(F)c4)[nH]3)CC2)c1 [Compound 1181]	–	activation of hSTING and/or mSTING in ISRE-luc reporter assay (20 μM): activate hSTING and/or mSTING
Fc1cccc(-c2nc(/C=C/c3cccs3)oc2-c2cccc(F)c2)c1 [Compound 1013]	–	activation of hSTING and/or mSTING in ISRE-luc reporter assay (10 μM): activate hSTING and/or mSting
Fc1cccc(-c2nc(/C=C/c3ccsc3)oc2-c2cccc(F)c2)c1 [Compound 1036]	–	activation of hSTING and/or mSTING in ISRE-luc reporter assay (10 μM): activate hSTING and/or mSting
Fc1cccc(-c2nc(CN3CCN(c4ccc(Br)cc4)CC3)[nH]c2-c2cccc(F)c2)c1 [Compound 1174]	–	activation of hSTING and/or mSTING in ISRE-luc reporter assay (10 μM): activate hSTING and/or mSTING
COCCN1CCN(Cc2nc(-c3ccccc3)c(-c3ccccc3)o2)CC1 [Compound 1370]	activate hSTING and/or mSTING	–
CNC(=O)c1ccc(C2CCN(Cc3nc(-c4cccc(F)c4)c(-c4cccc(F)c4)[nH]3)CC2)cc1 [Compound 1140]	activate hSTING and/or mSTING	–
O=C(c1cccc(F)c1)N1CCN(Cc2nc(-c3ccccc3)c(-c3ccccc3)o2)CC1 [Compound 1180]	–	activation of hSTING and/or mSTING in ISRE-luc reporter assay (20 μM): activate hSTING and/or mSTING
Cc1cccnc1CN1CCN(Cc2nc(-c3ccccc3)c(-c3ccccc3)o2)CC1 [Compound 1366]	activate hSTING and/or mSTING	–
Fc1ccccc1CN1CCN(Cc2nc(-c3ccccc3)c(-c3ccccc3)o2)CC1 [Compound 1357]	activate hSTING and/or mSTING	–
OC1(c2ccccc2)CCN(Cc2nc(-c3ccccc3)c(-c3ccccc3)o2)CC1 [Compound 1103]	activate hSTING and/or mSTING	–
N#CCN(CCc1c[nH]c2ccccc12)Cc1nc(-c2ccccc2)c(-c2ccccc2)o1 [Compound 1188]	activate hSTING and/or mSTING	–
